What was measured:
Test in all cases: cell-based
EP2 = EP2 (Homo sapiens, UniProt P43116);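 note: SF295 glioblastoma cells with endogenous EP2 only, PGE2-stimulated cAMP accumulation read by HTRF competitive immunoassay, 45 min pre-incubation then 30 min at room temperature, IBMX in buffer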
EP4 = EP4 (Homo sapiens, UniProt P35408);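 note: inhibition of PGE2-evoked (6 nM) cAMP accumulation in BT549 breast cancer cells endogenously expressing EP4, cAMP read by HTRF competitive immunoassay after 30 min at room temperature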
EP4, sequence (P35408 whole entry): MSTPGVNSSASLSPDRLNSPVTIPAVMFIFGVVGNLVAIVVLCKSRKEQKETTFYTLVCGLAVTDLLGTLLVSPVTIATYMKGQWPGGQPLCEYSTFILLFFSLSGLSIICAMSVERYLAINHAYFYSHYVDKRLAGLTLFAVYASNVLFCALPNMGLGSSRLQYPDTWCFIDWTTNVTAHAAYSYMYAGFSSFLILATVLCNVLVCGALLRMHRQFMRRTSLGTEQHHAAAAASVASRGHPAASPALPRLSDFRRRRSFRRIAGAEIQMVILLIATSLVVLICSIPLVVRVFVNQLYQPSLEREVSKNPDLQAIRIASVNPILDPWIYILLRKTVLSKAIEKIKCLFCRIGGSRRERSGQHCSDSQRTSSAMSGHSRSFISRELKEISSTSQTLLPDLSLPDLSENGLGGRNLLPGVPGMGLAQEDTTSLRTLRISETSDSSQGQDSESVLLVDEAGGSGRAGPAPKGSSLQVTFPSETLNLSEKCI
From the text: Human tumor cell lines expressing endogenously either EP4 or EP2 are used and cAMP accumulation in cells upon PGE2 stimulation is monitored.
As a detection method for cAMP the HTRF (homogeneous time resolved fluorescence) Cisbio kit (HTRF cAMP dynamic 2 kit 20′000 tests Cisbio Cat. #62AM4PEC) was used, which is based on a competitive immunoassay using a Cryptate-labeled anti-cAMP antibody and d2-labeled cAMP. Native cAMP produced by cells or unlabeled cAMP (for the standard curve) compete with exogenously added d2-labeled cAMP (acceptor) for binding to monoclonal anti-cAMP-Eu3+ Cryptate (donor). A FRET signal (Fluorescence Resonance Energy Transfer) is obtained only if the labeled anti-cAMP antibody binds the d2 labelled cAMP, thus the specific signal (i.e. energy transfer) is inversely proportional to the concentration of cAMP in the standard or sample.
The BT549 cells (NCI/No. 0507282) are detached from culture dishes with a cell dissociation buffer (Invitrogen, 13151-014), and collected in growing medium (GM: RPM11640 (Invitrogen 21875)/10% FCS, 1% Penicilin/streptomycin). Cells are counted washed and resuspended in assay buffer (AB; HBSS, 20 mM HEPES, 0.2% BSA; 2 mM IBMX). 4′000 cells in 5 μl of AB are seeded per well of a small volume 384 well plate (black with flat bottom, Greiner 784076).
Stock solutions of test compounds are made at a concentration of 10 mM in DMSO, and serially diluted in DMSO to concentrations required for inhibition dose response curves (tested concentration range 30 μM-0.4 nM; 30 μM-0.015 nM or 1 μM-0.01 nM).
PGE2 (Cayman 14010, stock solution: 6 μM in DMSO) is used as agonist at 6 nM final concentration, corresponding to EC80.
Two point five microliters of diluted compounds are transferred into the assay plate. Plate is pre-incubated 45 minutes at room temperature. Subsequently, 2.5 microliters of PGE2 (final conc. 6 nM) are transferred into the assay plate. Plate is incubated 30 minutes at room temperature.
For each compound concentration the percentage of cAMP compared to DMSO control value as average±STDEV (each concentration is measured in duplicate) is calculated.
(§1) When compounds were measured multiple times, mean values are given.

PTRGER4 (EP4) = PTRGER4 (EP4) (Homo sapiens, UniProt P35408);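 note: assay plate preincubated 15 min at 37 °C, after which PGE2 was added at 20 nM final and incubation continued 120 min at 37 °C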
PTRGER4 (EP4), sequence (P35408 whole entry): as above
From the text: (§2) The assay is using the PathHunter™ HEK 293 PTGER2 and PTGER4 b-arrestin cell lines from DiscoverX. The system is based on the Enzyme Fragment Complementation Technology. Two complementing fragments of the b-galactosidase enzyme are expressed within stably transfected cells. The larger portion of b-gal, termed EA for Enzyme Acceptor, is fused to the C-terminus of b-arrestin 2. The smaller fragment, termed ProLink™ tag, is fused to PTGER2 (EP2) or PTRGER4 (EP4) at the C-terminus. Upon activation, b-arrestin is recruited which forces the interaction of ProLink and EA, allowing complementation of the two fragments of b-gal and the formation of a functional enzyme which is capable of hydrolysing the substrate and generating a chemiluminescent signal.
The HEK 293 PTGER4 b-arrestin cells (DiscoverX 93-030-4C1) are detached from culture dishes with a cell dissociation buffer (Invitrogen, 13151-014), and collected in growing medium (GM: DMEM+Glutamax-I (Invitrogen 32430)/10% FCS, 1% Penicilin/streptomycin). 5000 cells per well of a 384 well plate (white with white bottom Greiner 781080) are seeded in 20 ul per well of GM. Plate is incubated at 37° C., 5% CO2 for 24 hours.
(§3) Stock solutions of test compounds are made at a concentration of 10 mM in DMSO, and serially diluted in DMSO to concentrations required for inhibition dose response curves (tested concentration range 10 μM-2 nM or 1 μM-0.2 nM).
PGE2 (Cayman 14010, stock solution: 100 uM in DMSO) is used as agonist at 20 nM final concentration, corresponding to EC80.
Five microliters of diluted compounds are transferred into the assay plate. Plate is pre-incubated 15 minutes at 37° C. Then five microliters of PGE2 (final conc. 20 nM) are transferred into the assay plate. Plate is incubated 120 minutes at 37° C.
Twelve μl of reagent are transferred to the assay plate and incubate for 1 hour at room temperature in the dark. Luminescence counts are read on a BMG Fluostar Optima reader according to manufacturers instructions.
(§4) For each compound concentration calculate of the percentage of activity compared to DMSO control value as average±STDEV. (each concentration is measured in duplicate)
as §1

PTGER2 (EP2) = PTGER2 (EP2) (Homo sapiens, UniProt P43116)
PTGER2 (EP2), sequence (P43116 whole entry): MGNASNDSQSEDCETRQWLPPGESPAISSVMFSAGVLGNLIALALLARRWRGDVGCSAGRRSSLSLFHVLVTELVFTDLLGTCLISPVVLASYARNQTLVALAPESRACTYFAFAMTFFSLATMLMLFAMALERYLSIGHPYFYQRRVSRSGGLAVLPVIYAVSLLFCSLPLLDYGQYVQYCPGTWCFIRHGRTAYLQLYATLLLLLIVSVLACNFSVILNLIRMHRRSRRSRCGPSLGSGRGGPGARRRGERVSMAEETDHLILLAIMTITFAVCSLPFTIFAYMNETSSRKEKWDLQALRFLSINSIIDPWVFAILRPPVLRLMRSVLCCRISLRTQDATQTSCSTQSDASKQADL
From the text: as §2
The HEK 293 PTGER2 b-arrestin cells (DiscoverX 93-021-4C1) are detached from culture dishes with a cell dissociation buffer (Invitrogen, 13151-014), and collected in growing medium (GM: DMEM+Glutamax-I (Invitrogen 32430)/10% FCS, 1% Penicilin/streptomycin). 5000 cells per well of a 384 well plate (white with white bottom Greiner 781080) are seeded in 20 ul per well of GM. Plate is incubated at 37° C., 5% CO2 for 24 hours.
as §3
PGE2 (Cayman 14010, stock solution: 10 mM in DMSO) is used as agonist at 5 μM final concentration, corresponding to EC80.
Five microliters of diluted compounds are transferred into the assay plate. Plate is pre-incubated 15 minutes at 37° C. Then five microliters of PGE2 (final conc. 5 μM) are transferred into the assay plate. Plate is incubated 120 minutes at 37° C.
Twelve μl of reagent are transferred to the assay plate and incubate for 1 hour at room temperature in the dark. Luminescence counts are read on a BMG Fluostar Optima reader according to manufacturer's instructions.
as §4, §1

EP2, sequence (P43116 whole entry): as above

IC50 (EP2)	IC50 (EP4)	IC50 (PTRGER4 (EP4))	IC50 (PTGER2 (EP2))	SMILES
392 nM	602 nM			CC(C(=O)O)c1ccc(-c2cc(NCCc3ccc(Br)cc3)ncn2)s1 (racemic) [Example 159, rac-2-(5-{6-[2-(4-Bromo-phenyl)-ethylamino]-pyrimidin-4-yl}-thiophen-2-yl)-propionic acid]
38 nM	5 nM			CCOc1cc(-c2cc(NCCc3ccc(SC)cc3OC)ncn2)sc1C(=O)O [Example 4, 3-Ethoxy-5-{6-[2-(2-methoxy-4-methylsulfanyl-phenyl)-ethylamino]-pyrimidin-4-yl}-thiophene-2-carboxylic acid]
45 nM	6 nM			CCOc1cc(-c2cc(NCCc3cc(C)c(C)cc3OC)ncn2)sc1C(=O)O [Example 5, 3-Ethoxy-5-{6-[2-(2-methoxy-4,5-dimethyl-phenyl)-ethylamino]-pyrimidin-4-yl}-thiophene-2-carboxylic acid]
642 nM	1080 nM			Cn1[nH]c(=O)c2ccc(-c3cc(NCCc4ccc(Br)cc4)ncn3)cc21 [Example 9, 6-{6-[2-(4-Bromo-phenyl)-ethylamino]-pyrimidin-4-yl}-1-methyl-1,2-dihydro-indazol-3-one]
931 nM	798 nM			COc1cc(-c2cc(NCCc3ccc(Br)cc3)ncn2)ccc1O [Example 10, 4-{6-[2-(4-Bromo-phenyl)-ethylamino]-pyrimidin-4-yl}-2-methoxy-phenol]
885 nM	617 nM			Oc1c(F)cc(-c2cc(NCCc3ccc(Br)cc3)ncn2)cc1F [Example 12, 4-{6-[2-(4-Bromo-phenyl)-ethylamino]-pyrimidin-4-yl}-2,6-difluoro-phenol]
294 nM	636 nM			COc1cc(-c2cc(NCCc3ccc(Br)cc3)ncn2)sc1C1(O)COC1 [Example 13, 3-(5-{6-[2-(4-Bromo-phenyl)-ethylamino]-pyrimidin-4-yl}-3-methoxy-thiophen-2-yl)-oxetan-3-ol]
257 nM	262 nM			O=c1[nH]c(-c2ccc(-c3cc(NCCc4ccc(Br)cc4)ncn3)cc2)no1 [Example 14, 3-(4-{6-[2-(4-Bromo-phenyl)-ethylamino]-pyrimidin-4-yl}-phenyl)-[1,2,4]oxadiazol-5(4H)-one]
795 nM	914 nM			COc1cc(-c2cc(NCCc3ccc(Br)cc3)ncn2)ccc1OCCO [Example 16, 2-(4-{6-[2-(4-Bromo-phenyl)-ethylamino]-pyrimidin-4-yl}-2-methoxy-phenoxy)-ethanol]
759 nM	68 nM	187 nM		O=C(O)c1sc(-c2cc(NCCc3ccc(C(F)(F)F)cc3)ncn2)cc1F [Example 22, 3-Fluoro-5-{6-[2-(4-trifluoromethyl-phenyl)-ethylamino]-pyrimidin-4-yl}-thiophene-2-carboxylic acid]
55 nM	30 nM			O=C(O)c1sc(-c2cc(NCCc3c(F)cc(Br)cc3F)ncn2)cc1OCCO [Example 32, 5-{6-[2-(4-Bromo-2,6-difluoro-phenyl)-ethylamino]-pyrimidin-4-yl}-3-(2-hydroxy-ethoxy)-thiophene-2-carboxylic acid]
1130 nM	149 nM	156 nM		Oc1cc(-c2ccc(-c3cc(NCCc4c(F)cc(Br)cc4F)ncn3)cc2)on1 [Example 33, 5-(4-{6-[2-(4-Bromo-2,6-difluoro-phenyl)-ethylamino]-pyrimidin-4-yl}-phenyl)-isoxazol-3-ol]
437 nM	676 nM	261 nM		O=c1nc(-c2ccc(-c3cc(NCCc4c(F)cc(Br)cc4F)ncn3)cc2)o[nH]1 [Example 34, 5-(4-(6-((4-Bromo-2,6-difluorophenethyl)amino)pyrimidin-4-yl)phenyl)-[1,2,4]oxadiazol-3(2H)-one]
343 nM	626 nM			CCOc1cc(-c2cc(NCCc3c(OC)cc(Br)cc3OC)ncn2)ccc1C(=O)O [Example 52, 4-{6-[2-(4-Bromo-2,6-dimethoxy-phenyl)-ethylamino]-pyrimidin-4-yl}-2-ethoxy-benzoic acid]
295 nM	166 nM	1160 nM		CCOc1cc(-c2cc(NCCc3ccc(C)cc3C)ncn2)sc1C(=O)O [Example 57, 5-{6-[2-(2,4-Dimethyl-phenyl)-ethylamino]-pyrimidin-4-yl}-3-ethoxy-thiophene-2-carboxylic acid]
376 nM	81 nM	139 nM		CCOc1cc(-c2cc(NCCc3ccc(OC)cc3)ncn2)sc1C(=O)O [Example 60, 3-Ethoxy-5-{6-[2-(4-methoxy-phenyl)-ethylamino]-pyrimidin-4-yl}-thiophene-2-carboxylic acid]

IC50 (EP2)	IC50 (EP4)	IC50 (PTRGER4 (EP4))	IC50 (PTGER2 (EP2))	SMILES
255 nM	366 nM			CCOc1cc(-c2cc(NCCc3ccc(F)cc3)ncn2)sc1C(=O)O [Example 80, 3-Ethoxy-5-{6-[2-(4-fluoro-phenyl)-ethylamino]-pyrimidin-4-yl}-thiophene-2-carboxylic acid]
558 nM	254 nM			CCOc1cc(-c2cc(NCCc3ccc(Br)cc3N(C)C)ncn2)sc1-c1noc(=O)[nH]1 [Example 109, 3-(5-{6-[2-(4-Bromo-2-dimethylamino-phenyl)-ethylamino]-pyrimidin-4-yl}-3-ethoxy-thiophen-2yl)-[1,2,4]oxadiazol-5(4H)-one]
46 nM	36 nM			CCOc1cc(-c2cc(NCCc3ccc(Br)cc3Cl)ncn2)sc1-c1noc(=O)[nH]1 [Example 124, 3-(5-{6-[2-(4-Bromo-2-chloro-phenyl)-ethylamino]-pyrimidin-4-yl}-3-ethoxy-thiophen-2-yl)-[1,2,4]oxadiazol-5(4H)-one]
700 nM	571 nM			CCOc1cc(-c2cc(NCCc3ccc(Br)cc3)ncn2)sc1-c1noc(C2COC2)n1 [Example 142, [2-(4-Bromo-phenyl)-ethyl]-{6-[4-ethoxy-5-(5-oxetan-3-yl-[1,2,4]oxadiazol-3-yl)-thiophen-2-yl]-pyrimidin-4-yl}-amine]
604 nM	344 nM			CCOc1cc(-c2cc(NCCc3ccc(Br)cc3)ncn2)sc1-c1noc(CO)n1 [Example 143, [3-(5-{6-[2-(4-Bromo-phenyl)-ethylamino]-pyrimidin-4-yl}-3-ethoxy-thiophen-2-yl)-[1,2,4]oxadiazol-5-yl]-methanol]
1120 nM	690 nM			CCOc1cc(-c2cc(NCCc3ccc(Br)cc3)ncn2)sc1C(C)O (centres unmarked) [Example 145, 1-(5-{6-[2-(4-Bromo-phenyl)-ethylamino]-pyrimidin-4-yl}-3-ethoxy-thiophen-2-yl)-ethanol]
490 nM	834 nM			O=c1[nH]c(-c2cccc(-c3cc(NCCc4ccc(Br)cc4)ncn3)c2)no1 [Example 147, 3-(3-{6-[2-(4-Bromo-phenyl)-ethylamino]-pyrimidin-4-yl}-phenyl)-[1,2,4]oxadiazol-5(4H)-one]
		163 nM	44 nM	CCCc1cc(-c2cc(NCCc3c(F)cc(Br)cc3F)ncn2)ccc1C(N)=O [Example 303, 4-{6-[2-(4-Bromo-2,6-difluoro-phenyl)-ethylamino]-pyrimidin-4-yl}-2-propyl-benzamide]
		628 nM	203 nM	CCCc1cc(-c2cc(NCCc3c(F)cc(Br)cc3F)ncn2)ccc1C(=O)NCC [Example 305, 4-{6-[2-(4-Bromo-2,6-difluoro-phenyl)-ethylamino]-pyrimidin-4-yl}-N-ethyl-2-propyl-benzamide]
		403 nM	97 nM	CCCc1cc(-c2cc(NCCc3c(F)cc(Br)cc3F)ncn2)ccc1C(=O)NCCO [Example 306, 4-{6-[2-(4-Bromo-2,6-difluoro-phenyl)-ethylamino]-pyrimidin-4-yl}-N-(2-hydroxy-ethyl)-2-propyl-benzamide]
		781 nM	219 nM	CCCc1cc(-c2cc(NCCc3c(F)cc(Br)cc3F)ncn2)ccc1C(=O)NCCOC [Example 307, 4-{6-[2-(4-Bromo-2,6-difluoro-phenyl)-ethylamino]-pyrimidin-4-yl}-N-(2-methoxy-ethyl)-2-propyl-benzamide]
		164 nM	156 nM	CCCc1cc(-c2cc(NCCc3c(F)cc(Br)cc3F)ncn2)ccc1C(=O)NCC(C)(C)O [Example 308, 4-{6-[2-(4-Bromo-2,6-difluoro-phenyl)-ethylamino]-pyrimidin-4-yl}-N-(2-hydroxy-2-methyl-propyl)-2-propyl-benzamide]
		875 nM	352 nM	Fc1cc(Br)cc(F)c1CCNc1cc(-c2ccc3nccn3c2)ncn1 [Example 309, [2-(4-Bromo-2,6-difluoro-phenyl)-ethyl]-(6-imidazo[1,2-a]pyridin-6-yl-pyrimidin-4-yl)-amine]
		776 nM	216 nM	OCCOc1ccc(-c2cc(NCCc3c(F)cc(Br)cc3F)ncn2)cc1 [Example 311, 2-(4-{6-[2-(4-Bromo-2,6-difluoro-phenyl)-ethylamino]-pyrimidin-4-yl}-phenoxy)-ethanol]
		703 nM	175 nM	O=C1Cc2cc(-c3cc(NCCc4c(F)cc(Br)cc4F)ncn3)ccc2N1 [Example 312, 5-{6-[2-(4-Bromo-2,6-difluoro-phenyl)-ethylamino]-pyrimidin-4-yl}-1,3-dihydro-indol-2-one]
		333 nM	143 nM	COC(=O)Nc1ccc(-c2cc(NCCc3c(F)cc(Br)cc3F)ncn2)cc1 [Example 313, (4-{6-[2-(4-Bromo-2,6-difluoro-phenyl)-ethylamino]-pyrimidin-4-yl}-phenyl)-carbamic acid methyl ester]

SMILES	IC50 (EP2)	IC50 (EP4)	IC50 (PTRGER4 (EP4))	IC50 (PTGER2 (EP2))
COc1cc(SC)ccc1CCNc1cc(-c2ccc(C(=O)O)c(OC3CCC3)c2)ncn1 [Example 8, 2-Cyclobutoxy-4-{6-[2-(2-methoxy-4-methylsulfanyl-phenyl)-ethylamino]-pyrimidin-4-yl}-benzoic acid]	340 nM	262 nM		
Cc1ccc(CCNc2cc(-c3ccc(C(=O)O)c(OC4CCC4)c3)ncn2)cc1C [Example 20, 2-Cyclobutoxy-4-{6-[2-(3,4-dimethyl-phenyl)-ethylamino]-pyrimidin-4-yl}-benzoic acid]	498 nM	574 nM	446 nM	

— patent US11712438B2, “Phenyl derivatives as PGE2 receptor modulators” (IDORSIA PHARMACEUTICALS LTD, priority 2017, dated 2023)
